Assay results as given in patent US8835115B2, “ABCB1 genotyping to predict microtubule-stabilizing-agent-induced toxicity” (The United States of America as represented by the …, priority 2006, dated 2014).
Marks after values point to notes of the source that are not given here. One block for each molecule: values may come before it.

Key:
[1] = test system: men with androgen-independent prostate cancer; assay: Clinical grade of neutropenia in docetaxel-treated patients by ABCB1 genotype; assay type: in vivo, human
Method: (§1) ABCB1 genotypes were evaluated in patients from a trial involving 73 men with androgen-independent prostate cancer that were treated with either docetaxel alone or docetaxel in combination with thalidomide. Patients were administered docetaxel intravenously (30 mg/m2) over 1 hour every week for 3 consecutive weeks (n=23). Some patients additionally received 200 mg of thalidomide orally each day (n=50). Toxicity was defined by Cancer Therapy Evaluation Program/National Cancer Institute Common Toxicity Criteria (version 2.0) and patients were evaluated for symptoms of toxicity weekly.

[2] = test system: men with androgen-independent prostate cancer; assay: Docetaxel-induced peripheral neuropathy by ABCB1 2677 genotype; assay type: in vivo, human; conditions: docetaxel 30 mg/m2 iv weekly for 3 consecutive weeks
Method: as §1

[3] = Paclitaxel pharmacokinetics in plasma of treated subjects by ABCB1 genotype; conditions: for AUCp, area under the curve of total paclitaxel, Median (95% CI) / AUCu, area under the curve of unbound paclitaxel, Median (95% CI) / T > 0.05 μM, duration of total plasma concentration of paclitaxel exceeding 0.05 μM, Median (95% CI): 100 mg/m^2 iv infusion, first administration
Method: (§2) Twenty-six subjects were examined. There were 14 male subjects and 12 female subjects with a median age of 59.5 years (range: 42-72). The subjects were treated with weekly one- or three-hour paclitaxel infusions. All subjects had histologically proven, locally advanced or metastatic cancer, for which paclitaxel as monotherapy was a therapeutic option.
(§3) Paclitaxel (30 mg) formulated in a mixture of Cremophor and absolute:ethanol (1:1, vol/vol) (Bristol Myers Squibb, Munich, Germany) was diluted in 500 mL of 5% (weight/vol) dextrose in water and administered to subjects via a peripheral or central venous catheter using a motor-driven programmable infusion pump. Eligible subjects were randomized between a one hour and three hour infusion duration to receive a total of six weekly intravenous infusions of paclitaxel at a dose of 100 mg/m^2. After six weeks of therapy (defined as one cycle) response was evaluated bi-dimensionally, usually by computed tomography. Subjects with a stable disease, partial response or complete response after one cycle received a second cycle, provided toxic effects were not prohibitive.
Blood samples were obtained from the subjects described in Example 1 during the first paclitaxel administration at baseline and at serial time points during and after infusion. Concentrations of total paclitaxel in plasma were determined by a validated method based on reversed-phase high performance liquid chromatography with ultraviolet detection, while unbound paclitaxel plasma concentrations were determined by micro-equilibrium dialysis using a [G-^3H]paclitaxel tracer. Pertinent pharmacokinetic parameters were calculated by non-compartmental methods using WinNonlin® version 5.0 (Pharsight, Mountain View, Calif., USA).
All data are reported as median values with the associated 95% CI, unless specified otherwise. Interindividual pharmacokinetic variability was assessed as the coefficient of variation, and expressed as a percentage. The associations of the variant genotypes with individual pharmacokinetic parameters were evaluated statistically with the nonparametric Kruskal-Wallis test. All P values are two-tailed, and those less than or equal to 0.05 were considered to reflect statistically significant results.

[4] = test system: subjects with locally advanced or metastatic cancer; conditions: both, human, in vivo
Method: as §2, §3
All data are reported as median values with the associated 95% CI, unless specified otherwise.

[5] = test system: subjects with locally advanced or metastatic cancer; assay: Cumulative peripheral neuropathy (clinical score >3) during weekly paclitaxel therapy by ABCB1 genotype; assay type: in vivo, human; conditions: weekly paclitaxel 100 mg/m^2, 12 weeks
Text: Twenty-six subjects were examined.
Prior to therapy, and if possible after six and twelve weeks of therapy, these examinations were supplemented by the evaluation of the peripheral neuropathy score, clinical chemistries (serum creatinine, transaminases, alkaline phosphatase, and bilirubin), electrocardiogram analysis and performance status. For the assessment of neurotoxicity a standardized clinical peripheral neuropathy scoring system was used, which included questioning subjects' symptoms, requiring a clinical examination based on a tuning fork test, and an evaluation of strength and peripheral reflexes. This individual clinical score could range from 0 (best) to 12 (worst) points, and based on the inclusion criteria of this trial, peripheral neuropathy was defined as an event when the score exceeded a value of 3 for the first time. A score had to be obtained, at a minimum, prior to and after six and twelve weeks of therapy in order for subjects to be included.
The probability of development of a peripheral neuropathy during paclitaxel therapy as a function of time, according to various genotypes, was analyzed using the Kaplan-Meier method. Statistical significance of the differences between Kaplan-Meier curves was determined using an exact log rank test. […]

[6] = genotype 2677TT + 3435TT, 11 patients in total
[7] = other ABCB1 genotypes, 39 patients in total
[8] = of the 15 subjects wild-type for ABCB1 2677G>T/A
[9] = subjects carrying at least one variant allele at ABCB1 2677
[10] = ABCB1 1236C>T heterozygous (N=17)
[11] = ABCB1 1236C>T variant (N=4), range quoted instead of 95% CI
[12] = ABCB1 1236C>T wild-type (N=5), range quoted instead of 95% CI
[13] = ABCB1 2677G>T heterozygous (N=13)
[14] = ABCB1 2677G>T wild-type (N=2), range quoted instead of 95% CI
[15] = ABCB1 3435C>T heterozygous (N=14)
[16] = ABCB1 3435C>T wild-type (N=4), range quoted instead of 95% CI

# Patients with Clinical Grade of Neutropenia, Grade 0 [1, 6]: 8 patients
# Patients with Clinical Grade of Neutropenia, Grade 2 [1, 6]: 0 patients
# Patients with Clinical Grade of Neutropenia, Grade 3 [1, 6]: 3 patients
# Patients with Clinical Grade of Neutropenia, Grade 0 [1, 7]: 35 patients
# Patients with Clinical Grade of Neutropenia, Grade 2 [1, 7]: 3 patients
# Patients with Clinical Grade of Neutropenia, Grade 3 [1, 7]: 1 patients
subjects who developed peripheral neuropathy during the observation period [2, 8]: 11 subjects
subjects who did not develop peripheral neuropathy during the observation period [2, 8]: 4 subjects
subjects who developed peripheral neuropathy during the observation period [2, 9]: 32 of 35
subjects who did not develop peripheral neuropathy during the observation period [2, 9]: 3 of 35
SMILES: CC(=O)O[C@@]12CO[C@@H]1C[C@H](O)[C@@]1(C)C(=O)[C@H](O)C3=C(C)[C@@H](OC(=O)[C@H](O)[C@@H](NC(=O)OC(C)(C)C)c4ccccc4)C[C@@](O)([C@@H](OC(=O)c4ccccc4)[C@H]21)C3(C)C [docetaxel, (2R,3S)—N-carboxy-3-phenylisoserine,N-tert-butyl ester, 13-ester with 5β-20-epoxy-1,2α,4,7β,10β,13α-hexahydroxytax-11-en-9-one 4-acetate 2-benzoate, trihydrate]

AUCp, area under the curve of total paclitaxel, Median (95% CI) [3, 10]: 5264 (3879-6235) (ng/mL) × hr
AUCu, area under the curve of unbound paclitaxel, Median (95% CI) [3, 10]: 470 (445-519) (ng/mL) × hrs
T > 0.05 μM, duration of total plasma concentration of paclitaxel exceeding 0.05 μM, Median (95% CI) ([3]; ABCB1 1236C>T heterozygous (N=17, one patient without data)): 15.6 (9.3-19.3)* hours
AUCp, area under the curve of total paclitaxel, Median (95% CI) [3, 11]: 3547 (2309-5600) (ng/mL) × hr
AUCu, area under the curve of unbound paclitaxel, Median (95% CI) [3, 11]: 407 (362-522) (ng/mL) × hrs
T > 0.05 μM, duration of total plasma concentration of paclitaxel exceeding 0.05 μM, Median (95% CI) [3, 11]: 15.6 (8.8-24.9) hours
AUCp, area under the curve of total paclitaxel, Median (95% CI) [3, 12]: 4657 (2909-9916) (ng/mL) × hr
T > 0.05 μM, duration of total plasma concentration of paclitaxel exceeding 0.05 μM, Median (95% CI) [3, 12]: 20.3 (8.8-34.2) hours
AUCp, area under the curve of total paclitaxel, Median (95% CI) [3, 13]: 5146 (3776-7762) (ng/mL) × hr
AUCu, area under the curve of unbound paclitaxel, Median (95% CI) [3, 13]: 482 (371-641) (ng/mL) × hrs
T > 0.05 μM, duration of total plasma concentration of paclitaxel exceeding 0.05 μM, Median (95% CI) ([3]; ABCB1 2677G>T heterozygous (N=13, one patient without data)): 17.3 (9.6-20.7)* hours
AUCp, area under the curve of total paclitaxel, Median (95% CI) ([3]; ABCB1 2677G>T variant (N=11)): 4203 (2309-5600) (ng/mL) × hr
AUCu, area under the curve of unbound paclitaxel, Median (95% CI) ([3]; ABCB1 2677G>T variant (N=11)): 445 (362-516) (ng/mL) × hrs
T > 0.05 μM, duration of total plasma concentration of paclitaxel exceeding 0.05 μM, Median (95% CI) ([3]; ABCB1 2677G>T variant (N=11)): 12.6 (8.8-19.8) hours
AUCp, area under the curve of total paclitaxel, Median (95% CI) [3, 14]: 3348 (2909-3787) (ng/mL) × hr
AUCu, area under the curve of unbound paclitaxel, Median (95% CI) [3, 14]: 540 (507-572) (ng/mL) × hrs
T > 0.05 μM, duration of total plasma concentration of paclitaxel exceeding 0.05 μM, Median (95% CI) [3, 14]: 15.1 (8.8-21.3) hours
AUCp, area under the curve of total paclitaxel, Median (95% CI) [3, 15]: 5485 (3787-6344) (ng/mL) × hr
AUCu, area under the curve of unbound paclitaxel, Median (95% CI) [3, 15]: 512 (432-523) (ng/mL) × hrs
T > 0.05 μM, duration of total plasma concentration of paclitaxel exceeding 0.05 μM, Median (95% CI) ([3]; ABCB1 3435C>T heterozygous (N=14, one patient without data)): 19.8 (10.5-21.3)* hours
AUCp, area under the curve of total paclitaxel, Median (95% CI) ([3]; ABCB1 3435C>T variant (N=8)): 3656 (2259-5600) (ng/mL) × hr
AUCu, area under the curve of unbound paclitaxel, Median (95% CI) ([3]; ABCB1 3435C>T variant (N=8)): 448 (362-522) (ng/mL) × hrs
T > 0.05 μM, duration of total plasma concentration of paclitaxel exceeding 0.05 μM, Median (95% CI) ([3]; ABCB1 3435C>T variant (N=8)): 13.7 (8.7-18.9) hours
AUCp, area under the curve of total paclitaxel, Median (95% CI) [3, 16]: 4534 (2909-5146) (ng/mL) × hr
AUCu, area under the curve of unbound paclitaxel, Median (95% CI) [3, 16]: 420 (313-572) (ng/mL) × hrs
fold greater percent decrease in neutrophil count at nadir, double variant versus rest of the population [4]: approximately 1.5 fold
development of peripheral neuropathy during the observation period ([5]; four subjects wild-type for ABCB1 3435C>T (3435CC)): did not develop peripheral neuropathy
subjects who developed peripheral neuropathy ([5]; subjects carrying at least one variant allele at ABCB1 3435 (CT or TT)): 17 of 18
SMILES: CC(=O)O[C@H]1C(=O)[C@@]2(C)[C@H]([C@H](OC(=O)c3ccccc3)[C@]3(O)C[C@H](OC(=O)[C@H](O)[C@@H](NC(=O)c4ccccc4)c4ccccc4)C(C)=C1C3(C)C)[C@]1(OC(C)=O)CO[C@@H]1C[C@@H]2O [paclitaxel, 5β,20-Epoxy-1,2α,4,7β,10β,13α-hexahydroxytax-11-en-9-one 4,10-diacetate 2-benzoate 13-ester with (2R,3S)—N-benzoyl-3-phenylisoserine]
association of ABCB1 genotypes with paclitaxel pharmacokinetic parameters ([3]; 26 subjects, ABCB1 1236C>T, 2677G>T, 3435C>T, Kruskal-Wallis test): none of the studied ABCB1 genotypes were associated with interindividual differences
